The subject of this test is monocrotaline-treated rats with pulmonary hypertension. The test can be described thus: Pulmonary artery pressure in monocrotaline treated rats (MCT-induced pulmonary arterial hypertension). The test is classed as in vivo, rat. The following applies: 3 mg/kg by gavage once daily from day 14 to day 28 after MCT. How it is done:
The effects of the compounds and drug combinations according to the invention are tested in vitro on isolated rat pulmonary arteries and in vivo in monocrotaline-treated rats with pulmonary hypertension.
Male Sprague Dawley rats (250-300 g) are treated with monocrotaline 60 mg/kg subcutanously (=day 0). On day 14 after monocrotaline injection treatment the compound/combination to be tested is administered. On day 28 hemodynamic parameters, i.e. right ventricular pressure, systemic blood pressure, heart rate, arterial and venous oxygen saturation are measured and compared with untreated control animals.
Monocrotaline (MCT) treated rats are randomized to receive 4{4-[3-(4-chloro-3-trifluoromethylphenyl)-ureido]-3-fluorophenoxy}-pyridine-2-carboxylic acid methylamide 3 mg/kg or vehicle by gavage once daily after the onset of moderate pulmonary arterial hypertension starting 14 days after the injection of MCT until day 28. […]

Turning to `CNC(=O)c1cc(Oc2ccc(NC(=O)Nc3ccc(Cl)c(C(F)(F)F)c3)c(F)c2)ccn1` [BAY73-4506, 4{4-[3-(4-chloro-3-trifluoromethylphenyl)-ureido]-3-fluorophenoxy}-pyridine-2-carboxylic acid methylamide], the mortality rate (control 0%, placebo 40%) was 0%. Where the note is “mean±SEM, control 0.25±0.01, placebo 0.62±0.02”, the “right ventricle/left ventricle+septum ratio (right ventricular hypertrophy)” value was determined as 0.28±0.01.

For the origin of these results see patent US20100035888A1, “Diaryl Urea for Treating Pulmonary Hypertension” (Bater Healthcare AG, priority 2005, published 2010).
